Key:
SMA = conditions: in vivo; cited from earlier work
juvenile minipigs = assay: 13-week repeat-dose toxicity study, rectal administration; assay type: in vivo; conditions: 13 weeks, 5 doses per day, 550 to 13,750 mg/kg
Description: The aim of this study was to test the toxicity of repeated administrations of sodium phenylbutyrate (NaPB) by the intended human route in juvenile minipigs (13-week study, total dose divided into 5 doses per day). Minipig is a model of interest for studies of local tolerance due to similarities between properties of the skin of pigs of the one of humans.
A 13-week repeat-dose toxicity study was conducted in juvenile minipigs using the rectal administration route of sodium phenylbutyrate (NaPB). One group was treated […] at the pharmacological dose of NaPB. One group received oral NaPB (total dose divided into 5 doses per day) for comparison.
The study included safety pharmacology evaluation, toxicokinetic (TK) determination, as well as a four-week recovery period.
Earliest dosing was started at 7 days of age. Oral gavage (5 times daily at 3-4 hour intervals) and rectal administration (5 times daily at 3-4 hour intervals) were performed during 13 weeks. A recovery period of 28 days was performed.
The recovery animals were housed for additional 28 days after dosing. The piglets were weighed twice weekly throughout the study. Growth measurements were performed twice weekly. Ophthalmology, electrocardiography were done the last day of treatment. […] The parameters measured met standard guidelines. […]

[1] = tested on: patients with SMA type II; conditions: oral, 9 weeks, cited from earlier work
[2] = after per os ingestion; cited from earlier work
patients with SMA = conditions: oral, 500 mg/kg/day, intermittent regimen, 13 weeks, 107 patients; cited from earlier work

SMILES	efficacy (SMA)	toxicity (juvenile minipigs)	scores on a motor scale ([1]; 500 mg/kg/day in five doses, 7 days on and 7 days off, 10 patients)	side effects ([1]; 500 mg/kg/day)	half-life [2]	efficacy (patients with SMA)	tolerability (patients with SMA)
CCCC(CCC)C(=O)O [Valproic acid, valproic acid]	do not seem to have given significant results	–	–	–	–	–	–
O=C([O-])CCCc1ccccc1.[Na+] [4-phenylbutyrate, sodium 4-phenylbutyrate]	–	No toxicity was observed	significant increase	no major side effect	46.2 min	not shown to be effective	well tolerated
NC(=O)NO [hydroxyurea]	do not seem to have given significant results	–	–	–	–	–	–

— patent publication US20140187638A1, “PHENYLBUTYRATE IN RECTAL FORM FOR THE TREATMENT OF A MOTOR NEURON DISEASE OR A METABOLIC DISEASE” (GMP-ORPHAN, priority 2011, published 2014)
